Experimental data reported in publication PMC5688156, “The natural product carolacton inhibits folate-dependent C1 metabolism by targeting FolD/MTHFD” (Nature Communications, 2017).

What was measured:
ecFolD = target: T1, ecFolD (Escherichia coli, UniProt P24186); assay: SPR binding to ecFolD; design: species or system E. coli
T1 construct: His-tag (TEV-cleavable, vector pHis-TEV); made in house; host or cells: E. coli BL21 (DE3)
Method: All surface plasmon resonance (SPR) experiments described in this study were performed on a Biacore X100 system. Different FolDs with or without His-tag were coupled on CM5 sensor chips (GE Healthcare) by the amine coupling method using a kit from GE Healthcare Life Sciences (Freiburg, Germany). A pH scouting process was performed before protein immobilization to test the most appropriate buffer and the protein concentration for protein coupling. Finally, 20 μg/mL of ecFolD in 10 mM maleate buffer (pH 6.8), 30 μg/mL of ecFolD Q98H in 10 mM maleate buffer (pH 6.3), 40 μg/mL of ecFolD K54N in 10 mM maleate buffer (pH 5.8), 20 μg/mL of spFolD in 10 mM maleate buffer (pH 6.0) and 15 μg/mL of MTHFD2 (His-tag cleaved) in 10 mM maleate buffer (pH 6.8) were used for coupling. In the protein immobilization procedure, the contact time was calculated based on the pH scouting results to achieve ~3000–5000 relative resonance units (RU). The buffer used in the SPR assays was 1× HBS-P buffer (10 mM HEPES pH 7.4, 150 mM NaCl, 0.05% Tween 20). The 1 mM stock solution of carolacton was prepared in 1× HBS-P buffer and diluted to different concentration ranges by two-fold serial dilution. In the SPR assay, the association time was 180 s and the dissociation time was 600 s. Data analysis was performed using the Biacore evaluation software. […]

ecFolD G8S = target: T2, ecFolD G8S (Escherichia coli, UniProt P24186, G8S); assay: ecFolD G8S mutant dehydrogenase (DH) enzyme assay; format: biochemical, E. coli
T2 construct: His-tag (TEV-cleavable, vector pHis-TEV); made in house; host or cells: E. coli BL21 (DE3)
Method: (6R,S)-5,10-Methylene-5,6,7,8-tetrahydrofolic acid ((6R,S)-5,10-CH2-THF) calcium salt and (6R,S)-5,10-Methenyl-5,6,7,8-tetrahydrofolic acid ((6R,S)-5,10-CH=THF) chloride were purchased from Schircks Laboratories (Bauma, Switzerland) and used as substrates for FolD dehydrogenase and cyclohydrolase enzyme assays, respectively. Only the R-isomer, which accounts for 50% of (6R,S)-5,10-CH2-THF and (6R,S)-5,10-CH=THF, respectively, is used by the enzyme. (6R,S)-5,10-CH2-THF was dissolved in N2-spargeled basic buffer (50 mM Tris-HCl (pH 8.0), 100 mM β-mercaptoethanol) as described by Varshney et al.[25]. (6R,S)-5,10-CH=THF was dissolved in DMSO as a 100 mM stock solution.
Because FolD is a bifunctional enzyme, dehydrogenase and cyclohydrolase activities were determined for FolD enzyme kinetics, respectively. The dehydrogenase activity of FolD was assayed for its substrate 5,10-CH2-THF and cofactor NADP^+ (in the case of MTHFD2, NAD^+ was used as the cofactor) based on monitoring the formation of 5,10-CH=THF, while the cyclohydrolase activity of FolD was determined for its substrate 5,10-CH=THF by monitoring the hydrolysis of […]. The enzyme kinetics for the dehydrogenase activity of all FolDs except hsMTHFD1_DC were determined at 30 °C in 50 mM Tris-HCl (pH 7.5), 30 mM β-mercaptoethanol. […]

CO[C@H](CC(=O)O)[C@@H](C)C(=O)[C@H](C)/C=C(\C)[C@H]1OC(=O)[C@H](O)[C@H](O)/C=C/[C@H](C)CCC[C@@H]1C [carolacton]
Kd (ecFolD): 10 nM
koff (ecFolD): 0.01 s⁻¹
IC50 (ecFolD G8S): 86.5 nM
IC80 (ecFolD G8S; read-out: IC80, carolacton inhibition on DH activity): 737 nM
